What was measured:
[1] = tested on: HT1080 tet-off Flag-XBP-1s cells; assay: Colony formation of HT1080 tet-off Flag-XBP-1s cells under hypoxia; type: cell-based, human; details: 2.5 μM, hypoxia 48 hours
Method: A. Effect of irestatin 9389 on PERK and ATF6 pathways. HT1080 cells were treated with vehicle alone (lanes 1-4) or 2.5 μM irestatin 9389 (lanes 5-8) and cultured under aerobic conditions for 18 hours (N) or shifted to hypoxia for the indicated times. Protein lysates were analyzed by Western blot analysis using antisera specific for ATF6 (top), CHOP/GADD153 (middle) or actin (bottom). Arrow indicates the cleaved, transcriptionally active form of ATF6. B. Cleavage of caspase-3 in irestatin-treated cells under hypoxia. HT1080 cells were cultured in normoxia (N) or under hypoxia for 36 hours (H 36) in absence or presence of irestatin 9389 (2.5 μM). Arrows indicate proteolytically cleaved caspase-3. C. Colony formation assay. HT1080 cells were treated as in B under normoxia (N) or hypoxia for 48 hours (H 48). Cells were harvested, counted, and allowed to grow under normal culture conditions for 11-12 days. Colonies were visualized with crystal violet staining. D. Quantification of clonogenic survival assay. Values represent the mean+/−SEM from at least 4 independent experiments. E. TUNEL staining of cells treated as in C. F. Quantification of TUNEL-positive cells. Values represent the mean+/− SEM from at least 3 experiments. […] Cells were harvested at the indicated times and counted by hemocytometer. Values represent the mean calculated from triplicate experiments+/−SEM. […]

[2] = tested on: HT1080 s.c. tumor xenografts; type: in vivo
Method: Female 4-6 week-old SCID (B6.CB 17) mice supplied by Stanford University Animal Facility were housed in the same facility (American Association of Laboratory Animal Care-approved) with 12 hour light cycles. Food and water were provided ad libitum. All experiments were approved by the institutional care and use committee. The potential toxicities of irestatin 9389 were examined in SCID mice injected i.p. once daily over 4 consecutive days with increasing doses of irestatin 9389 or vehicle control. […] For xenografts, 2×10^6 HT1080 fibrosarcoma cells were resuspended in 50-75 μl PBS and injected s.c. in the dorsal flanks of host mice. When the implanted tumors reached a mean volume of ˜150 mm^3, mice were randomly assigned into different treatment groups. Mice were dosed by i.p. bolus injection with either vehicle (50% DMSO, 20% cremophor EL, 30% ethanol) or irestatin 9389 (50 mg/kg). Tumors (6-8 per group) were measured every 2-4 days with calipers. Tumor volume was calculated using the formula [(W^2×L) 0.52] where W=width and L=length.
A. Irestatin 9389 impairs IRE1α activity in implanted tumor xenografts. Equal numbers (2×10^6) of XBP-luciferase or CMV-luciferase reporter cells were implanted s.c. into SCID mice. After one week, mice were treated with irestatin 9389 (50 mg/kg), followed by optical bioluminescence imaging. B. Inhibition of tumor growth by irestatin 9389. HT1080 s.c. tumor xenografts were established in SCID mice and allowed to reach a mean volume of 150 mm^3 before treatment. Irestatin 9389 (50 mg/kg) or vehicle control was administered q 2d by i.p. injection and continued for 2 weeks, for a total of 6 doses. Tumor volumes were calculated based on caliper measurements taken every 3-5 days. Data points represent the mean volume calculated from at least 7 tumors per group, with SEM shown in one direction. Mean mouse weights+/−SEM are shown in bottom graph. C.
Next, we tested if treatment with irestatin 9389 could have a direct impact on tumor growth. […]

What does the source list for Cc1csc(NC(=O)CSc2nc3c(c(C(F)(F)F)c2C#N)CCC3)n1 [Compound 9389]?
decrease in viability ([1]; dox present (no Flag-XBP-1s)): ~60 fold; survival of hypoxic cells expressing Flag-XBP-1s ([1]; no dox): minimal effect on the survival; antitumor effects ([2]; 50 mg/kg i.p. every other day, 6 doses): significant cytostatic antitumor effects; mean tumor volume ([2]; 50 mg/kg i.p. every other day, 6 doses, one week after the last treatment, P<0.01): 480+/−210 mm^3; weight loss compared to vehicle-treated mice ([2]; mouse, in vivo): did not exhibit significant long-term weight loss

From patent publication US20130150399A1, “INHIBITORS OF THE UNFOLDED PROTEIN RESPONSE AND METHODS FOR THEIR USE” (The Board of Trustees of the Leland Stanford Junior …, priority 2006, published 2013)
